According to patent publication US9079913B2, “Spiro-oxindole MDM2 antagonists” (The Regents of the University of Michigan, priority 2009, dated 2015):
Read-outs that look alike come from different tables or passages of the source.

Columns and labels:
[1] = system: Isogenic HCT-116 colon cancer cell lines; assay: cells; format: cell-based; details: Table 19A, cell growth;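 note: cells grown in 96-well plates in McCoy's 5A medium with 10% FBS, exposed to compound for 4 days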
Experimental: Cells were seeded in 96-well flat bottom cell culture plates at a density of 2−3×10^3 cells/well with compounds and incubated for 4 days.

[2] = system: cancer cell lines with wild-type p53 / mutated or deleted p53 (ATCC); assay: Cell growth assay (WST-8), other cancer cell lines; format: cell-based; details: Table 19A
[3] = In vitro microsomal stability, rat; format: in vitro ADME; details: for Microsomal stability, % remaining: Rat Microsome, same batch
[4] = In vitro microsomal stability, human; format: in vitro ADME; details: for Microsomal stability, % remaining: Human Microsome, same batch

## CC(O)C(O)CCNC(=O)[C@@H]1N[C@H](CC(C)(C)C)[C@]2(C(=O)Nc3cc(Cl)c(F)cc32)[C@H]1c1cccc(Cl)c1 (stereo partly drawn) [MI-519-31]
[1]; read-out: HCT-116 (p53-/-) IC50, HCT-116 p53-/-
  IC50: 20.1 ± 2.5 µM
[1]; read-out: HCT-116 (p53 wild-type) IC50, HCT-116 p53 wild-type
  IC50: 2 ± 0.8 µM
[2]; LNCAP cells, p53 wild-type, cell growth, read-out: LNCAP (p53 wild-type) IC50
  IC50: 1.3 ± 0.2 µM
[2]; PC-3 cells, deleted p53, cell growth, read-out: PC-3 (deleted p53) IC50
  IC50: 24.7 ± 2 µM
[3]; 0 min
  % of compound remaining when incubated in rat liver microsomes at indicated time (min): 100%
  % of compound remaining when incubated in rat liver microsomes with NADPH: 100.00%
  Microsomal stability, % remaining: 100.00%
[3]; 4 min
  % of compound remaining when incubated in rat liver microsomes at indicated time (min): 80.1%
[3]; 5 min
  % of compound remaining when incubated in rat liver microsomes with NADPH: 80.22%
  Microsomal stability, % remaining: 80.22%
[3]; 6 min
  % of compound remaining when incubated in rat liver microsomes at indicated time (min): 69.4%
[3]; 10 min
  % of compound remaining when incubated in rat liver microsomes at indicated time (min): 54.3%
  % of compound remaining when incubated in rat liver microsomes with NADPH: 65.69%
  Microsomal stability, % remaining: 65.69%
[3]; 15 min
  % of compound remaining when incubated in rat liver microsomes at indicated time (min): 47.7%
  % of compound remaining when incubated in rat liver microsomes with NADPH: 57.57%
  Microsomal stability, % remaining: 57.57%
[3]; 30 min
  % of compound remaining when incubated in rat liver microsomes at indicated time (min): 31%
  % of compound remaining when incubated in rat liver microsomes with NADPH: 42.91%
  Microsomal stability, % remaining: 42.91%
[3]; 45 min
  % of compound remaining when incubated in rat liver microsomes with NADPH: 34.31%
  Microsomal stability, % remaining: 34.31%
[3]; 60 min
  % of compound remaining when incubated in rat liver microsomes with NADPH: 32.81%
  Microsomal stability, % remaining: 32.81%
[3]; rat liver microsomes, NADPH, 0 min
  % of compound remaining when incubated in rat liver microsomes with NADPH: 100.00%
[3]; rat liver microsomes, NADPH, 5 min
  % of compound remaining when incubated in rat liver microsomes with NADPH: 80.22%
[3]; rat liver microsomes, NADPH, 10 min
  % of compound remaining when incubated in rat liver microsomes with NADPH: 65.69%
[3]; rat liver microsomes, NADPH, 15 min
  % of compound remaining when incubated in rat liver microsomes with NADPH: 57.57%
[3]; rat liver microsomes, NADPH, 30 min
  % of compound remaining when incubated in rat liver microsomes with NADPH: 42.91%
[3]; rat liver microsomes, NADPH, 45 min
  % of compound remaining when incubated in rat liver microsomes with NADPH: 34.31%
[3]; rat liver microsomes, NADPH, 60 min
  % of compound remaining when incubated in rat liver microsomes with NADPH: 32.81%
[3]; rat, liver microsomes, rat liver microsomes with NADPH
  half-life: 18.7 min
[4]; 0 min
  % of compound remaining when incubated in human liver microsomes with NADPH: 100.00%
  Microsomal stability, % remaining: 100.00%
[4]; 5 min
  % of compound remaining when incubated in human liver microsomes with NADPH: 78.11%
  Microsomal stability, % remaining: 78.11%
[4]; 10 min
  % of compound remaining when incubated in human liver microsomes with NADPH: 58.15%
  Microsomal stability, % remaining: 58.15%
[4]; 15 min
  % of compound remaining when incubated in human liver microsomes with NADPH: 45.42%
  Microsomal stability, % remaining: 45.42%
[4]; 30 min
  % of compound remaining when incubated in human liver microsomes with NADPH: 22.75%
  Microsomal stability, % remaining: 22.75%
[4]; 45 min
  % of compound remaining when incubated in human liver microsomes with NADPH: 13.25%
  Microsomal stability, % remaining: 13.25%
[4]; 60 min
  % of compound remaining when incubated in human liver microsomes with NADPH: 8.56%
  Microsomal stability, % remaining: 8.56%
[4]; human liver microsomes, NADPH, 0 min
  % of compound remaining when incubated in human liver microsomes with NADPH: 100.00%
[4]; human liver microsomes, NADPH, 5 min
  % of compound remaining when incubated in human liver microsomes with NADPH: 78.11%
[4]; human liver microsomes, NADPH, 10 min
  % of compound remaining when incubated in human liver microsomes with NADPH: 58.15%
[4]; human liver microsomes, NADPH, 15 min
  % of compound remaining when incubated in human liver microsomes with NADPH: 45.42%
[4]; human liver microsomes, NADPH, 30 min
  % of compound remaining when incubated in human liver microsomes with NADPH: 22.75%
[4]; human liver microsomes, NADPH, 45 min
  % of compound remaining when incubated in human liver microsomes with NADPH: 13.25%
[4]; human liver microsomes, NADPH, 60 min
  % of compound remaining when incubated in human liver microsomes with NADPH: 8.56%
[4]; human, liver microsomes, human liver microsomes with NADPH
  half-life: 13 min
